Results: patent EP1270000A2, “Benzoic acid substituted benzopyrans for the treatment of atherosclerosis” (Pfizer Products Inc., priority 2001, dated 2003)

What was measured:
MCP-1 ^-/- X ApoE^-/- = assay: Lesion analysis (Oil red O, aortic sinus and valve) in MCP-1 deficient mice; assay type: in vivo; conditions: M, mean ±SD
Description: (§1) Mouse line derivation. Genetically modified apolipoprotein E-deficient (ApoE^-/-), low density lipoprotein (LDL) receptor-deficient (LDLr^-/-), and monocyte chemoattractant protein-1-deficient (MCP-1^-/-) mice used in the present study have been previously described and characterized [See Rutledge, B.J. et. al., J. Immunol., 1995;155:4838-4843; and Nakashima Y, et. al., Arterioscler. Thromb., 1994;14(1):133-140]. To obtain mice homozygous for both the apoE and MCP-1 (ScyA2) null alleles, male ApoE^-/- mice on a C57B/6 background (C57E^- ^/-) were mated with heterozygous female MCP-1^-/+ mice on a C57B/6 background. The resulting ApoE^-/- x MCP-1^-/+ progeny were identified by Southern blot analysis and inbred to produce ApoE^-/- x MCP-1^-/- (C57E^-/- x MCP-1 ^-/-) and control ApoE ^-/- x MCP-1^+/+ (C57E-/-) mice. ApoE^-/- mice on the mixed genetic background 1290la x C57B/6 (129E^-/-) were bred in-house and derived from brother and sister matings. All mice were weaned at 21 days, maintained on a 12 hour light/dark cycle and fed either a chow or a Western-type diet [See, Bourassa, P.K., et. al., Proc Natl Acad. Sci. USA, 1996;93:10022-10027].
(§2) Administration of Compound. Compound of formula I, preferably (3S, 4R)-7-(2-carboxy-5-trifluoromethylphenyl)-4-hydroxy-3-benzyl-3,4-dihydro-2H-1-benzopyran, was evaluated for its effects on lesion development in age-matched groups of mice (15 to 30 weeks of age at time of sacrifice) using a 35 day treatment protocol. Subgroups of mice were treated with (3S, 4R)-7-(2-carboxy-5-trifluoromethylphenyl)-4-hydroxy-3-benzyl-3,4-dihydro-2H-1-benzopyran for shorter times (7-14 days) for evaluation of acute changes in tissue gene expression as noted in the table and figure legends. In all study groups, the compound was administered by oral gavage once daily in a vehicle comprised of 0.6% Tween 80 + 0.25% methylcellulose in PBS. Mice received either vehicle alone, 30mg/kg/day, or 100mg/kg/day of compound of formula I.
(§3) Lesion Analysis. To determine cross-sectional lesion area, hearts were perfusion-fixed in 4% paraformaldehyde, infiltrated with 30% gum sucrose for 24 hours at 4°C, and embedded in OCT compound and sectioned 10µm, -18°C, as previously described [See Borgeat P., et.al., J. Biol. Chem., 1979;254:2643-2646] and the sections were stained with Oil red O (Polyscientific, Bay Shore NY) and counterstained with Gill III hematoxylin (Sigma, St. Louis MO). Each section of the aortic valve was evaluated for Oil red O staining area by capturing images directly from a RGB camera attached to a Leitz Laborlux S (Leica) light microscope for display on a Trinitron RGB monitor. Image analysis was performed using ImagePro 3.1' software as described previously [See Bourassa, P.K., et. al., Proc Natl. Acad. Sci. USA, 1996;93:10022-10027]. Results are expressed as the average lesion size per section or as the percent of the total cross sectional vessel wall stained with Oil red O. For each animal, the average lesion area of 12-16 sections was determined and data are expressed as lesion size or mean percent lesion area ±S.D.
(§4) Referring to Table 4, mice homozygous for the null alleles of Monocyte chemoattractant protein-1 (MCP-1^-/-) and apolipoprotein E (ApoE^-/-) (MCP-1 ^-/- X ApoE^-/-) on a C57bl/6 background (C57E^-/-) mice were treated for 35 days orally with (3S, 4R)-7-(2-carboxy-5-trifluoromethylphenyl)-4-hydroxy-3-benzyl-2H-1-benzopyran) at doses indicated 0, 30 or 100mg/kg. The mean percent lesion area in 10 µ sections of the aortic sinus and valve region was calculated following oil red O staining, Values are reported as means ±SD. The term "ND" is defined as Not Determined. The term "TPC" is defined as Total Plasma Cholesterol. The term "TG" is defined as Triglycerides. The term "sinus" is defined as a region of the aortic valve; moving up from the base of the heart; which begins at the first appearance of the aortic valve cusps, dividing the lumen into three distinct regions. […]

129E^-/- = assay: Lesion analysis (Oil red O, aortic sinus and valve) in atherosclerotic mice; assay type: in vivo; design: Lesion size: unit not given here; conditions: chow diet; for Sinus (% lesion) / Valve (%lesion): 129E^-/-, F, mean ±SD
Description: as §1
as §2, with “Mice received either vehicle alone, 30mg/kg/day, or 100mg/kg/day of compound of formula I.” left out
as §3
as §4, with “2, Apolipoprotein E-deficient mice on a mixed 129Io/B6 (129E^-/-) or a C57BI/6 background (C57E^-/-),” for “4,”, “low density lipoprotein receptor deficient mice LDLR^-/-” for “for the null alleles of Monocyte chemoattractant protein-1 (MCP-1^-/-) and apolipoprotein E (ApoE^-/-) (MCP-1 ^-/- X ApoE^-/-) on a C57bl/6 background (C57E^-/-)”, “indicated. LDLR^-/- was fed a Western diet; all other strains were maintained on chow diet.” for “indicated 0, 30 or 100mg/kg.”, “válve;” for “valve;”, “regions. In the sinus, the aortic wall is bulging and irregular.” for “regions.”

[1] = Body weight of treated mice; assay type: in vivo
Protocol: as §2, with “Mice received either vehicle alone, 30mg/kg/day, or 100mg/kg/day of compound of formula I.” left out

C57E^-/- = assay: Lesion analysis (Oil red O, aortic sinus and valve) in atherosclerotic mice; assay type: in vivo; conditions: 100 mg/kg orally 35 days, chow diet, mean ±SD
Description: as §1
as §2, with “In all study groups, the compound was administered by oral gavage once daily in a vehicle comprised of 0.6% Tween 80 + 0.25% methylcellulose in PBS. Mice received either vehicle alone, 30mg/kg/day, or 100mg/kg/day of compound of formula I.” left out
(§5) Lesion Analysis. […] Each section of the aortic valve was evaluated for Oil red O staining area by capturing images directly from a RGB camera attached to a Leitz Laborlux S (Leica) light microscope for display on a Trinitron RGB monitor. […] Results are expressed as the average lesion size per section or as the percent of the total cross sectional vessel wall stained with Oil red O. For each animal, the average lesion area of 12-16 sections was determined and data are expressed as lesion size or mean percent lesion area ±S.D.
Referring to Table 2, Apolipoprotein E-deficient mice on a mixed 129Io/B6 (129E^-/-) or a C57BI/6 background (C57E^-/-), mice homozygous low density lipoprotein receptor deficient mice LDLR^-/- mice were treated for 35 days orally with (3S, 4R)-7-(2-carboxy-5-trifluoromethylphenyl)-4-hydroxy-3-benzyl-2H-1-benzopyran) at doses indicated. […] The mean percent lesion area in 10 µ sections of the aortic sinus and valve region was calculated following oil red O staining, Values are reported as means ±SD. The term "ND" is defined as Not Determined. […]

CD11b = assay: Immunohistochemical staining of macrophages (CD11b) in atherosclerotic lesions; assay type: in vivo, mice; conditions: 30 mg/kg/d orally for 35 days, mean ± SD, N=8/group
Protocol: as §2
Immunohistochemical Staining of Macrophages. Serial paraformaldehyde fixed, OCT embedded sections of aortic valves were immunostained for macrophages using rat monoclonal antibodies (IgG2b) against MOMA-2 (BioSource) and CD11b (Pharmingen). Endogenous biotin and peroxidase activity were blocked by incubating each section with an avidin/biotin solution (Vector Laboratories), and 0.3% H2O2 in 1% bovine serum, respectively. […] Results are expressed as the percent of the total cross-sectional vessel wall area (normal + diseased area/ section, excluding the lumen) stained with DAB. […]

LDLr^-/- = assay: Lesion analysis (Oil red O, aortic sinus and valve) in atherosclerotic mice; assay type: in vivo; design: Lesion size: unit not given here
Description: as §1
Administration of Compound. Compound of formula I, preferably (3S, 4R)-7-(2-carboxy-5-trifluoromethylphenyl)-4-hydroxy-3-benzyl-3,4-dihydro-2H-1-benzopyran, was evaluated for its effects on lesion development in age-matched groups of mice (15 to 30 weeks of age at time of sacrifice) using a 35 day treatment protocol. […]
as §5, with “±S.D. […]” for “±S.D.”

[2] = 15 wks, 30 mg/kg orally 35 days
[3] = 15 wks, 100 mg/kg orally 35 days
[4] = 30 wks, 30 mg/kg orally 35 days
[5] = 30 wks, 100 mg/kg orally 35 days
[6] = 15 wks, 50 mg/kg orally 35 days
[7] = 20 wks, 30 mg/kg orally 35 days
[8] = 24 wks, 100 mg/kg orally 35 days
[9] = LDLr^-/-, M, 18 wks, 30 mg/kg orally 35 days, Western diet, mean ±SD

In the case of `O=C(O)c1ccc(C(F)(F)F)cc1-c1ccc2c(c1)OC[C@H](Cc1ccccc1)[C@H]2O` [(3S, 4R)-7-(2-carboxy-5-trifluoromethylphenyl)-4-hydroxy-3-benzyl-3,4-dihydro-2H-1-benzopyran], the “Sinus (% lesion)” value (MCP-1 ^-/- X ApoE^-/-; [2]) is reported as 13.3±2%, the “Valve (%lesion)” value (MCP-1 ^-/- X ApoE^-/-; [2]) is reported as 12.8±2% and the “Sinus (% lesion)” value (MCP-1 ^-/- X ApoE^-/-; [3]) is reported as 9.8±1%. For the same compound, the “Valve (%lesion)” value (MCP-1 ^-/- X ApoE^-/-; [3]) was 9.7±1%, the “Sinus (% lesion)” value (MCP-1 ^-/- X ApoE^-/-; [4]) was 41.4±5% and the “Valve (%lesion)” value (MCP-1 ^-/- X ApoE^-/-; [4]) was 54.2±7%. For the same compound, the “Sinus (% lesion)” value (MCP-1 ^-/- X ApoE^-/-; [5]) was 43.1±5%, the “Valve (%lesion)” value (MCP-1 ^-/- X ApoE^-/-; [5]) was 50.0±4% and the “Sinus (% lesion)” value (129E^-/-; [2]) was 19.6±2%. The “Valve (%lesion)” value (129E^-/-; [2]) was 21.6±2%, the “Sinus (% lesion)” value (129E^-/-; [6]) was 14.7±2 % and the “Valve (%lesion)” value (129E^-/-; [6]) was 16.3±2 %. For the same compound, the “Sinus (% lesion)” value (129E^-/-; [3]) was 7.9±1 %, the “Valve (%lesion)” value (129E^-/-; [3]) was 8.0±2 % and the “Sinus (% lesion)” value (129E^-/-; [7]) was 24.4±3%. The “Valve (%lesion)” value (129E^-/-; [7]) was 25.9±3 %, the “Sinus (% lesion)” value (129E^-/-; [8]) was 30.0±1% and the “Valve (%lesion)” value (129E^-/-; [8]) was 34.0±1%. For the same compound, the Lesion size (129E^-/-; female 129E^-/-, 30 mg/kg/d orally for 35 days, mean ± SD, N=8/group) was 10650±12133, the “Body wt(gm)” value ([1]; 129E^-/-, F, 15 wks, 30 mg/kg orally 35 days, chow diet) was 26±2 gm and the “Body wt(gm)” value ([1]; 129E^-/-, F, 15 wks, 50 mg/kg orally 35 days, chow diet) was 25±2 gm. The “Body wt(gm)” value ([1]; 129E^-/-, F, 15 wks, 100 mg/kg orally 35 days, chow diet) was 25±1 gm, the “Body wt(gm)” value ([1]; 129E^-/-, F, 20 wks, 30 mg/kg orally 35 days, chow diet) was 29±1 gm and the “Body wt(gm)” value ([1]; 129E^-/-, F, 24 wks, 100 mg/kg orally 35 days, chow diet) was 31±1 gm. The “Body wt(gm)” value ([1]; C57E^-/-, F, 22 wks, 100 mg/kg orally 35 days, chow diet) was 30 gm, the “Body wt(gm)” value ([1]; C57E^-/-, M, 16 wks, 100 mg/kg orally 35 days, chow diet) was 29±1 gm and the “Body wt(gm)” value ([1]; LDLr^-/-, M, 18 wks, 30 mg/kg orally 35 days, Western diet) was 31±2 gm. The “Body wt(gm)” value ([1]; MCP-1 ^-/- X ApoE^-/-, M, 15 wks, 30 mg/kg orally 35 days) was 29±1 gm, the “Body wt(gm)” value ([1]; MCP-1 ^-/- X ApoE^-/-, M, 15 wks, 100 mg/kg orally 35 days) was 29±1 gm and the “Body wt(gm)” value ([1]; MCP-1 ^-/- X ApoE^-/-, M, 30 wks, 30 mg/kg orally 35 days) was 31±1 gm. The “Body wt(gm)” value ([1]; MCP-1 ^-/- X ApoE^-/-, M, 30 wks, 100 mg/kg orally 35 days) was 26±1 gm, the “Sinus (% lesion)” value (C57E^-/-; F, 22 wks) was 38.8±3% and the “Valve (%lesion)” value (C57E^-/-; F, 22 wks) was 39±2%. For the same compound, the “Sinus (% lesion)” value (C57E^-/-; M, 16 wks) was 10.4±3 %, the “Valve (%lesion)” value (C57E^-/-; M, 16 wks) was 7.8±2 % and the “% CD11b (mean percent of the lesion staining positively for CD11b)” value (CD11b; female 129E^-/-, chow diet) was 3.5±1.0 %. For the same compound, the “% CD11b (mean percent of the lesion staining positively for CD11b)” value (CD11b; male LDLr^-/-, Western-type diet) was 3.5±2.5 %, the “Sinus (% lesion)” value (LDLr^-/-; [9]) was 5.6±2 % and the “Valve (%lesion)” value (LDLr^-/-; [9]) was 6.5±3 %. The Lesion size (LDLr^-/-; male LDLr^-/-, Western-type diet, 30 mg/kg/d orally for 35 days, mean ± SD, N=8/group) was 19955±7278.
